Tested on: patients with cGVHD
Conditions: Cohort 2 200 mg BID
Experimental: All responses were assessed by the investigators.
Reported Adverse Events. […] All-cause mortality data collected during the study were assessed for all enrolled participants. Disease progression related death was not reported as AE.
Number of Participants With Treatment-emergent Adverse Events (TEAEs), and Treatment-emergent Serious Adverse Events (TESAEs). […] TEAEs included both SAEs and non-SAEs. […] Analysis was performed on safety population which included all participants who received at least 1 dose of study medication.

## CC(C)NC(=O)COc1cccc(-c2nc(Nc3ccc4[nH]ncc4c3)c3ccccc3n2)c1 [Belumosudil, 2-{3-[4-(1H-indazol-5-ylamino)-2-quinazolinyl]phenoxy}-N-(propan-2-yl) acetamide]
  Bronchoscopy: # Events: 0
  Bronchoscopy: Affected/At Risk (%): 0/16 (0%)
  Catheter site haemorrhage: # Events: 0
  Catheter site haemorrhage: Affected/At Risk (%): 0/16 (0%)
  Chills: # Events: 1
  Chills: Affected/At Risk (%): 1/16 (6.25%)
  Chronic kidney disease: # Events: 0
  Chronic kidney disease: Affected/At Risk (%): 0/16 (0%)
  Conjunctival haemorrhage: # Events: 1
  Conjunctival haemorrhage: Affected/At Risk (%): 1/16 (6.25%)
  Conjunctivitis: # Events: 1
  Conjunctivitis: Affected/At Risk (%): 1/16 (6.25%)
  Constipation: # Events: 1
  Constipation: Affected/At Risk (%): 1/16 (6.25%)
  Contrast media allergy: # Events: 2
  Contrast media allergy: Affected/At Risk (%): 2/16 (12.5%)
  Contusion: # Events: 2
  Contusion: Affected/At Risk (%): 2/16 (12.5%)
  Corneal abrasion: # Events: 0
  Corneal abrasion: Affected/At Risk (%): 0/16 (0%)
  Corneal infection: # Events: 2
  Corneal infection: Affected/At Risk (%): 1/16 (6.25%)
  Cough: # Events: 5
  Cough: Affected/At Risk (%): 4/16 (25%)
  Death, No. (%): 0
  Decreased appetite: # Events: 2
  Decreased appetite: Affected/At Risk (%): 2/16 (12.5%)
  Dehydration: # Events: 4
  Dehydration: Affected/At Risk (%): 3/16 (18.75%)
  Depression: # Events: 4
  Depression: Affected/At Risk (%): 4/16 (25%)
  Diarrhoea: # Events: 10
  Diarrhoea: Affected/At Risk (%): 5/16 (31.25%)
  Dizziness: # Events: 4
  Dizziness: Affected/At Risk (%): 1/16 (6.25%)
  Drug eruption: # Events: 1
  Drug eruption: Affected/At Risk (%): 1/16 (6.25%)
  Drug-related AE, No. (%): 8 (50)
  Drug-related SAE, No. (%): 0
  Dry eye: # Events: 4
  Dry eye: Affected/At Risk (%): 4/16 (25%)
  Dry skin: # Events: 0
  Dry skin: Affected/At Risk (%): 0/16 (0%)
  Dyspepsia: # Events: 2
  Dyspepsia: Affected/At Risk (%): 2/16 (12.5%)
  Dysphagia: # Events: 4
  Dysphagia: Affected/At Risk (%): 3/16 (18.75%)
  Dyspnoea exertional: # Events: 0
  Dyspnoea exertional: Affected/At Risk (%): 0/16 (0%)
  Dyspnoea: # Events: 7
  Dyspnoea: Affected/At Risk (%): 5/16 (31.25%)
  Embolism: # Events: 0
  Embolism: Affected/At Risk (%): 0/16 (0%)
  Enamel anomaly: # Events: 1
  Enamel anomaly: Affected/At Risk (%): 1/16 (6.25%)
  Epidural lipomatosis: # Events: 0
  Epidural lipomatosis: Affected/At Risk (%): 0/16 (0%)
  Epstein-Barr virus infection: # Events: 0
  Epstein-Barr virus infection: Affected/At Risk (%): 0/16 (0%)
  Erectile dysfunction: # Events: 0
  Erectile dysfunction: Affected/At Risk (%): 0/16 (0%)
  Eye irritation: # Events: 0
  Eye irritation: Affected/At Risk (%): 0/16 (0%)
  Eye pain: # Events: 4
  Eye pain: Affected/At Risk (%): 2/16 (12.5%)
  Eye pruritus: # Events: 1
  Eye pruritus: Affected/At Risk (%): 1/16 (6.25%)
  Fall: # Events: 1
  Fall: Affected/At Risk (%): 1/16 (6.25%)
  Fatigue: # Events: 7
  Fatigue: Affected/At Risk (%): 3/16 (18.75%)
  Flatulence: # Events: 2
  Flatulence: Affected/At Risk (%): 1/16 (6.25%)
  Flushing: # Events: 1
  Flushing: Affected/At Risk (%): 1/16 (6.25%)
  Fungal infection: # Events: 0
  Fungal infection: Affected/At Risk (%): 0/16 (0%)
  Gamma-glutamyltransferase increased: # Events: 4
  Gamma-glutamyltransferase increased: Affected/At Risk (%): 4/16 (25%)
  Gastric ulcer: # Events: 1
  Gastric ulcer: Affected/At Risk (%): 1/16 (6.25%)
  Gastrooesophageal reflux disease: # Events: 1
  Gastrooesophageal reflux disease: Affected/At Risk (%): 1/16 (6.25%)
  Generalised oedema: # Events: 0
  Generalised oedema: Affected/At Risk (%): 0/16 (0%)
  Genital infection fungal: # Events: 1
  Genital infection fungal: Affected/At Risk (%): 1/16 (6.25%)
  Glaucoma: # Events: 1
  Glucose urine present: # Events: 0
  Glucose urine present: Affected/At Risk (%): 0/16 (0%)
  Grade ≥3 AE, No. (%): 10 (63)
  Grade ≥3 ALT/AST increased, No. (%): 2 (13)
  Grade ≥3 Anemia, No. (%): 1 (6)
  Grade ≥3 Dyspnea, No. (%): 2 (13)
  Grade ≥3 Hyperglycemia, No. (%): 0
  Grade ≥3 Hypoxia, No. (%): 1 (6)
  Grade ≥3 Lung infection or pneumonia, No. (%): 2 (13)
  Graft versus host disease in gastrointestinal tract: # Events: 0
  Graft versus host disease in gastrointestinal tract: Affected/At Risk (%): 0/16 (0%)
  Gynaecomastia: # Events: 1
  Gynaecomastia: Affected/At Risk (%): 1/16 (6.25%)
  Haematuria: # Events: 1
  Haematuria: Affected/At Risk (%): 1/16 (6.25%)
  Hair growth abnormal: # Events: 0
  Hair growth abnormal: Affected/At Risk (%): 0/16 (0%)
  Headache: # Events: 3
  Headache: Affected/At Risk (%): 3/16 (18.75%)
  Hodgkin's disease recurrent: # Events: 0
  Hodgkin's disease recurrent: Affected/At Risk (%): 0/16 (0%)
  Hordeolum: # Events: 0
  Hordeolum: Affected/At Risk (%): 0/16 (0%)
  Hot flush: # Events: 0
  Hot flush: Affected/At Risk (%): 0/16 (0%)
  Hyperglycemia: # Events: 0
  Hyperglycemia: Affected/At Risk (%): 0/16 (0%)
  Hyperhidrosis: # Events: 1
  Hyperhidrosis: Affected/At Risk (%): 1/16 (6.25%)
  Hyperkalaemia: # Events: 2
  Hyperkalaemia: Affected/At Risk (%): 2/16 (12.5%)
  Hypertension: # Events: 5
  Hypertension: Affected/At Risk (%): 2/16 (12.5%)
  Hyperthyroidism: # Events: 1
  Hyperthyroidism: Affected/At Risk (%): 1/16 (6.25%)
  Hypertriglyceridaemia: # Events: 1
  Hypertriglyceridaemia: Affected/At Risk (%): 1/16 (6.25%)
  Hyperuricaemia: # Events: 2
  Hyperuricaemia: Affected/At Risk (%): 1/16 (6.25%)
  Hypoaesthesia: # Events: 0
  Hypoaesthesia: Affected/At Risk (%): 0/16 (0%)
  Hypocalcaemia: # Events: 4
  Hypocalcaemia: Affected/At Risk (%): 1/16 (6.25%)
  Hypogonadism: # Events: 0
  Hypogonadism: Affected/At Risk (%): 0/16 (0%)
  Hypokalaemia: # Events: 3
  Hypokalaemia: Affected/At Risk (%): 2/16 (12.5%)
  Hypomagnesaemia: # Events: 1
  Hypomagnesaemia: Affected/At Risk (%): 1/16 (6.25%)
  Hyponatraemia: # Events: 0
  Hyponatraemia: Affected/At Risk (%): 0/16 (0%)
  Hypophosphataemia: # Events: 1
  Hypophosphataemia: Affected/At Risk (%): 1/16 (6.25%)
  Hypothermia: # Events: 1
  Hypothermia: Affected/At Risk (%): 1/16 (6.25%)
  Hypothyroidism: # Events: 2
  Hypothyroidism: Affected/At Risk (%): 1/16 (6.25%)
  Hypoxia: # Events: 5
  Hypoxia: Affected/At Risk (%): 2/16 (12.5%)
  Impaired healing: # Events: 0
  Impaired healing: Affected/At Risk (%): 0/16 (0%)
  Influenza like illness: # Events: 2
  Influenza like illness: Affected/At Risk (%): 1/16 (6.25%)
  Influenza: # Events: 2
  Influenza: Affected/At Risk (%): 1/16 (6.25%)
  Insomnia: # Events: 0
  Insomnia: Affected/At Risk (%): 0/16 (0%)
  Irritability: # Events: 0
  Irritability: Affected/At Risk (%): 0/16 (0%)
  Joint range of motion decreased: # Events: 1
  Joint range of motion decreased: Affected/At Risk (%): 1/16 (6.25%)
  Lacrimation increased: # Events: 1
  Lacrimation increased: Affected/At Risk (%): 1/16 (6.25%)
  Leukaemia recurrent: # Events: 0
  Leukaemia recurrent: Affected/At Risk (%): 0/16 (0%)
  Leukocytosis: # Events: 0
  Leukocytosis: Affected/At Risk (%): 0/16 (0%)
  Ligament sprain: # Events: 0
  Ligament sprain: Affected/At Risk (%): 0/16 (0%)
  Limb injury: # Events: 0
  Limb injury: Affected/At Risk (%): 0/16 (0%)
  Macular degeneration: # Events: 1
